What was measured:
[1] = tested on: AGS gastric carcinoma cells [heterozygous G12D]; assay: Cancer cell line proliferation (CellTiter-Glo), AGS; type: cell-based; settings: Homo sapiens, 72 hr treatment, read-out: AGS CTG (EC50)
Procedure: (§1) The following cancer cell lines were employed: AGS gastric carcinoma [heterozygous G12D](ATCC, CRL-1739); A-427 lung carcinoma [heterozygous G12D](ATCC, HTB-53); ASPC1 pancreatic adenocarcinoma [homozygous G12D](ATCC, CRL-1682) and SW1990 pancreatic adenocarcinoma [homozygous G12D](ATCC CRL-2172). Cell lines were cultured essentially according to ATCC recommendations.
(§2) AGS, A-427, ASPC1, SW1990, and GP2D cells were plated in 96-well tissue culture plates at 4,000 cells/well and incubated at 37° C./5% CO2 for 72 hr in 100 μl of media. 3-fold serial dilutions of each test compound were prepared ranging from 20 μM to 1.02 nM. Each cell line was then treated with test compounds at various concentrations with a final concentration of 0.5% DMSO/well, and then incubated at 37° C./5% CO2 for 72 hr. 100 µl of CellTiter-Glo® Reagent (Promega Corporation, Madison, WI) was added to each well and processed according manufacturer's protocol. Results were analyzed and EC50 values were calculated in GraphPad 7 software.

KRAS(G12D)/SOS1 = molecular target: T1, KRAS(G12D)/SOS1 (Homo sapiens, UniProt P01116, G12D); assay: KRAS(G12D)/SOS1 homogeneous time-resolved fluorescence (HTRF) assay; type: binding; settings: absence of GTP; 4° C., 3 hr
T1 construct: purchased Cisbio 63ADK000CB17PEH
T1 sequence (P01116 1-188 isoform P01116-2 G12D): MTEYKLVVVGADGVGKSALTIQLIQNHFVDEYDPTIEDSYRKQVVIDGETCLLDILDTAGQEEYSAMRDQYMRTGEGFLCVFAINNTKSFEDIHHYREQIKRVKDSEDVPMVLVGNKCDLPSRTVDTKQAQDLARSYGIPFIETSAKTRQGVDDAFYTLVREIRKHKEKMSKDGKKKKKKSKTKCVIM
Procedure: Binding of test compounds to KRAS(G12D) target protein, which in turn blocks KRAS(G12D) interaction with the SOS1 protein, was measured in the absences of GTP by homogeneous time-resolved fluorescence using the KRAS-G12D/SOS1 Binding Assay Kit (Cisbio, 63ADK000CB17PEH), following the manufacturer's instructions, except as noted. 3-fold serial dilutions of each test compound were prepared ranging from 20 µM to 1.02 nM. The test compound was mixed and incubated with reaction components, incubated in a sealed plate at 4° C. for 3 hr and fluorescence was measured using a PerkinElmer Envision plate reader. The KRAS(G12D)-SOS1 IC50 values (the concentration of 50% of the maximal inhibition) were calculated using GraphPad Prism 7 software.

[2] = tested on: A-427 lung carcinoma cells [heterozygous G12D]; assay: Cancer cell line proliferation (CellTiter-Glo), A-427; type: cell-based; settings: Homo sapiens, A-427 cells, 72 hr treatment, read-out: A427 CTG (EC50)
Procedure: as §1, §2

SMILES	EC50 [1] [nM]	IC50 (KRAS(G12D)/SOS1) [nM]	EC50 [2] [nM]
C#Cc1cccc2cc(O)cc(-c3ncc4c(N5CC6CCC(C5)N6)nc(OCC5(CN6CCC(C(=O)N7CCN(Cc8ccc9c(c8)CN(C(=O)c8cc(C(C)C)c(O)cc8O)C9)CC7)CC6)CC5)nc4c3F)c12 [Example 3, 4-{5-[(4-{1-[(1-{[(4-{3,8-diazabicyclo[3.2.1]octan-3-yl}-7-(8-ethynyl-3-hydroxynaphthalen-1-yl)-8-fluoropyrido[4,3-d]pyrimidin-2-yl)oxy]methyl}cyclopropyl)methyl]piperidine-4-carbonyl}piperazin-1-yl)methyl]-1,3-dihydroisoindole-2-carbonyl}-6-isopropylbenzene-1,3-diol]	< 100	< 100	100 to 1000
CCNC(=O)c1nnc(-c2cc(C(C)C)c(O)cc2O)n1-c1ccc(CN2CCN(C[C@H]3C[C@@H](COc4nc(N5CC6CCC(C5)N6)c5cnc(-c6cc(O)cc7ccccc67)c(F)c5n4)N(C)C3)CC2)cc1 [Compound 95]	< 100	< 100	100 to 1000
C#Cc1cccc2cc(O)cc(-c3ncc4c(N5CC6CCC(C5)N6)nc(OC[C@@H]5C[C@H](N6CCN(Cc7ccc(-n8c(C(=O)NC(C)C)nnc8-c8cc(C(C)C)c(O)cc8O)cc7)CC6)CN5C)nc4c3F)c12 [Compound 87]	100 to 1000	< 100	100 to 1000
CCNC(=O)c1nnc(-c2cc(C(C)C)c(O)cc2O)n1-c1ccc(CN2CCN(C[C@H]3CC[C@@H](COc4nc(N5CC6CCC(C5)N6)c5cnc(-c6cccc7cccc(C)c67)c(F)c5n4)N3C)CC2)cc1 [Compound 72]	< 100	100 to 1000	< 100
C#Cc1cccc2cc(O)cc(-c3ncc4c(N5CC6CCC(C5)N6)nc(OC[C@@H]5C[C@H](N6CCN(C(=O)C7CCN(Cc8ccc9c(c8)CN(C(=O)c8cc(C(C)C)c(O)cc8O)C9)CC7)CC6)CN5C)nc4c3F)c12 [Compound 97]	100 to 1000	< 100	100 to 1000
CC(C)c1cc(C(=O)N2Cc3ccc(CN4CCN([C@H]5C[C@@H](COc6nc(N7CC8CNC(C8)C7)c7cnc(-c8cc(O)cc9ccccc89)c(F)c7n6)N(C)C5)CC4)cc3C2)c(O)cc1O (stereo partly drawn) [Compound 74]	100 to 1000	> 1000	100 to 1000
C#Cc1cccc2cccc(-c3ncc4c(N5CC6CCC(C5)N6)nc(OC[C@@H]5C[C@H](N6CCN(CCN(CC)C(=O)c7cc(C(C)C)c(O)cc7O)CC6)CN5C)nc4c3F)c12 [Compound 80]	> 1000	< 100	> 1000
CC(C)c1cc(-c2nnc(C(=O)NC(C)C(F)(F)F)n2-c2ccc(CN3CCN([C@H]4C[C@@H](COc5nc(N6CC7CCC(C6)N7)c6cnc(-c7cccc8cccc(F)c78)c(F)c6n5)N(C)C4)CC3)cc2)c(O)cc1O (stereo partly drawn) [Compound 93]	< 100	100 to 1000	100 to 1000
COc1cccc2cccc(-c3ncc4c(N5CC6CCC(C5)N6)nc(OC[C@@H]5C[C@H](N6CCN(C(=O)C7CCN(Cc8ccc9c(c8)CN(C(=O)c8cc(C(C)C)c(O)cc8O)C9)CC7)CC6)CN5C)nc4c3F)c12 [Compound 104]	100 to 1000	> 1000	100 to 1000
COc1cccc2cccc(-c3ncc4c(N5CC6CCC(C5)N6)nc(OC[C@@H]5C[C@H](N6CCN(Cc7ccc(-n8c(C(=O)NC(C)C(F)(F)F)nnc8-c8cc(C(C)C)c(O)cc8O)cc7)CC6)CN5C)nc4c3F)c12 (stereo partly drawn) [Compound 106]	< 100	> 1000	100 to 1000
CC(C)c1cc(-c2nnc(C(=O)NC(C)C(F)(F)F)n2-c2ccc(CN3CCN(C[C@H]4C[C@@H](COc5nc(N6CC7CCC(C6)N7)c6cnc(-c7cc(O)cc8ccccc78)c(F)c6n5)N(C)C4)CC3)cc2)c(O)cc1O (stereo partly drawn) [Compound 118]	< 100	< 100	100 to 1000
CCNC(=O)c1nnc(-c2cc(C(C)C)c(O)cc2O)n1-c1ccc(CN2CCN([C@H]3C[C@@H](COc4nc(N5CC6CNC(C6)C5)c5cnc(-c6cc(O)cc7ccccc67)c(F)c5n4)N(C)C3)CC2)cc1 (stereo partly drawn) [Compound 85]	100 to 1000	> 1000	100 to 1000
CC(C)c1cc(-c2nnc(C(=O)NCC(F)(F)F)n2-c2ccc(CN3CCN([C@H]4C[C@@H](COc5nc(N6CC7CCC(C6)N7)c6cnc(-c7cccc8cccc(F)c78)c(F)c6n5)N(C)C4)CC3)cc2)c(O)cc1O [Compound 109]	< 100	100 to 1000	100 to 1000
CC(C)c1cc(C(=O)N2Cc3ccc(CN4CCN(C[C@H]5CC[C@@H](COc6nc(N7CC8CCC(C7)N8)c7cnc(-c8cccc9cccc(F)c89)c(F)c7n6)N5C)CC4)cc3C2)c(O)cc1O [Compound 76]	100 to 1000	100 to 1000	100 to 1000
C#Cc1cccc2cc(O)cc(-c3ncc4c(N5CC6CCC(C5)N6)nc(OCC5(CN6CCC(C(=O)N7CCN(Cc8ccc(-n9c(C(=O)NCC(F)(F)F)nnc9-c9cc(C(C)C)c(O)cc9O)cc8)CC7)CC6)CC5)nc4c3F)c12 [Compound 119]	< 100	< 100	100 to 1000
CCNC(=O)c1nnc(-c2cc(C(C)C)c(O)cc2O)n1-c1ccc(CN2CCC(C(=O)N3CCN([C@H]4C[C@@H](COc5nc(N6CC7CCC(C6)N7)c6cnc(-c7ccccc7C(F)(F)F)c(F)c6n5)N(C)C4)CC3)CC2)cc1 [Compound 89]	< 100	> 1000	< 100
CCc1cc(-c2nnc(C(=O)NCC(F)(F)F)n2-c2ccc(CN3CCN([C@H]4C[C@@H](COc5nc(N6CC7CCC(C6)N7)c6cnc(-c7cccc(F)c7C)c(F)c6n5)N(C)C4)CC3)cc2)c(O)cc1O [Compound 79]	100 to 1000	> 1000	100 to 1000
C#Cc1cccc2cc(O)cc(-c3ncc4c(N5CC6CCC(C5)N6)nc(OC[C@@H]5C[C@H](N6CCN(Cc7ccc(-n8c(C(=O)NC(C)C(F)(F)F)nnc8-c8cc(C(C)C)c(O)cc8O)cc7)CC6)CN5C)nc4c3F)c12 (stereo partly drawn) [Compound 98]	100 to 1000	< 100	100 to 1000
Cc1cccc2cccc(-c3ncc4c(N5CC6CCC(C5)N6)nc(OC[C@@H]5CC[C@H](CN6CCN(C(=O)C7CCN(Cc8ccc9c(c8)CN(C(=O)c8cc(C(C)C)c(O)cc8O)C9)CC7)CC6)N5C)nc4c3F)c12 [Compound 94]	100 to 1000	100 to 1000	100 to 1000
CC(C)NC(=O)c1nnc(-c2cc(C(C)C)c(O)cc2O)n1-c1ccc(CN2CCN([C@H]3C[C@@H](COc4nc(N5CC6CCC(C5)N6)c5cnc(-c6ccccc6C(F)(F)F)c(F)c5n4)N(C)C3)CC2)cc1 [Compound 88]	< 100	> 1000	100 to 1000
C#Cc1cccc2cc(O)cc(-c3ncc4c(N5CC6CCC(C5)N6)nc(OC[C@@H]5C[C@H](N6CCN(Cc7ccc(-n8c(C(=O)NCC)nnc8-c8cc(C(C)C)c(O)cc8O)cc7)CC6)CN5C)nc4c3F)c12 [Compound 96]	100 to 1000	< 100	100 to 1000
CCc1cc(-c2nnc(C(=O)NCC(F)(F)F)n2-c2ccc(CN3CCN(C[C@H]4CC[C@@H](COc5nc(N6CC7CCC(C6)N7)c6cnc(-c7cc(C)cc8ccccc78)c(F)c6n5)N4C)CC3)cc2)c(O)cc1O [Compound 73]	100 to 1000	< 100	100 to 1000
Cc1cccc2cccc(-c3ncc4c(N5CC6CCC(C5)N6)nc(OC[C@@H]5CC[C@H](CN6CCN(Cc7ccc8c(c7)CN(C(=O)c7cc(C(C)C)c(O)cc7O)C8)CC6)N5C)nc4c3F)c12 [Compound 71]	100 to 1000	100 to 1000	100 to 1000
CCc1cc(-c2nnc(C(=O)NCC(F)(F)F)n2-c2ccc(CN3CCN(C[C@H]4CC[C@@H](COc5nc(N6CC7CCC(C6)N7)c6cnc(-c7cccc8cccc(C)c78)c(F)c6n5)N4C)CC3)cc2)c(O)cc1O [Compound 108]	100 to 1000	100 to 1000	100 to 1000
CC(C)c1cc(-c2nnc(C(=O)NCC(F)(F)F)n2-c2ccc(CN3CCN([C@H]4C[C@@H](COc5nc(N6CC7CCC(C6)N7)c6cnc(-c7cc(O)cc8ccccc78)c(F)c6n5)N(C)C4)CC3)cc2)c(O)cc1O [Compound 101]	< 100	< 100	100 to 1000
C#Cc1cccc2cc(O)cc(-c3ncc4c(N5CC6CCC(C5)N6)nc(OC[C@@H]5C[C@H](N6CCN(Cc7ccc(-n8c(C(=O)NCC(F)(F)F)nnc8-c8cc(CC)c(O)cc8O)cc7)CC6)CN5C)nc4c3F)c12 [Compound 99]	100 to 1000	< 100	100 to 1000
C#Cc1cccc2cc(O)cc(-c3ncc4c(N5CC6CCC(C5)N6)nc(OC[C@@H]5C[C@H](N6CCN(Cc7ccc8c(c7)CN(C(=O)c7cc(C(C)C)c(O)cc7O)C8)CC6)CN5C)nc4c3F)c12 [Compound 86]	100 to 1000	< 100	100 to 1000
